Positions of bridges follow the written chain, without caps; N, C: chain ends. Non-standard residues stand in square brackets, D forms with d. Residues, ends and D or L forms follow the SMILES beside them.
System: Cells derived from six prolactin-secreting pituitary adenomas
Test: Prolactin secretion from cultured prolactinoma cells (immunoradiometric assay of PRL in medium)
Assay type: cell-based, human
Details: for effect on prolactin release (in words): adenomatous cell cultures of tumor 1, 3 hours; for response of prolactin secretion (in words): cells from the four large tumors (tumors 1, 2, 3 and 4); for suppressed prolactin release / effect on prolactin production (in words): tumor 4 cell cultures; for suppressed prolactin release: p<0.05

| Compound | effect on prolactin release (in words) | response of prolactin secretion (in words) | suppressed prolactin release | effect on prolactin production (in words) | Prolactin release inhibited versus controls (tumor 2 cell cultures, 10 nM, p < 0.0005) | suppressed prolactin (tumor 3 cell cultures, 10 nM and 100 nM, dose dependent, p < 0.05) |
| --- | --- | --- | --- | --- | --- | --- |
| CC[C@@H]1NC(=O)[C@H](CCCCN)NC(=O)[C@@H](Cc2c[nH]c3ccccc23)NC(=O)[C@H](Cc2ccc(O)cc2)NC(=O)[C@@H](NC(=O)[C@H](N)Cc2ccccc2)CSSC[C@@H](C(=O)N[C@H](C(N)=O)[C@@H](C)O)NC1=O [BIM-23023] | did not affect prolactin release |  |  |  |  |  |
| C[C@@H](O)[C@H](NC(=O)[C@H](Cc1ccccc1)NC(=O)[C@@H](NC(=O)[C@H](CCCCN)NC(=O)[C@@H](Cc1c[nH]c2ccccc12)NC(=O)[C@H](Cc1ccccc1)NC(=O)[C@H](Cc1ccccc1)NC(=O)[C@H](N)Cc1ccccc1)[C@@H](C)O)C(N)=O [BIM-23052, H-D-Phe-Phe-Phe-D-Trp-Lys-Thr-Phe-Thr-NH2] (H-[dF]FF[dW]KTFT-NH2) |  | suppression of prolactin secretion | more than 30% |  |  |  |
| CC[C@@H]1NC(=O)[C@H](CCCCN)NC(=O)[C@@H](Cc2c[nH]c3ccccc23)NC(=O)[C@H](Cc2ccc(O)cc2)NC(=O)[C@@H](NC(=O)[C@@H](Cc2ccccc2)NC(=O)CN2CCN(CCO)CC2)CSSC[C@@H](C(=O)N[C@H](C(N)=O)[C@@H](C)O)NC1=O [BIM-23190] | did not affect prolactin release | failed to respond |  | modestly stimulated prolactin production |  |  |
| CC[C@@H]1NC(=O)[C@H](CCCCN)NC(=O)[C@@H](Cc2c[nH]c3ccccc23)NC(=O)[C@H](Cc2ccc(O)cc2)NC(=O)[C@@H](NC(=O)[C@@H](Cc2ccccc2)NS(=O)(=O)CCN2CCN(CCO)CC2)CSSC[C@@H](C(=O)N[C@H](C(N)=O)[C@@H](C)O)NC1=O [BIM-23197] | did not affect prolactin release | failed to respond |  | modestly stimulated prolactin production |  |  |
| C[C@@H](O)[C@@H]1NC(=O)[C@H](CCCCN)NC(=O)[C@@H](Cc2c[nH]c3ccccc23)NC(=O)[C@H](Cc2ccccc2)NC(=O)[C@H](Cc2ccccc2)NC(=O)[C@@H](N)CSSC[C@@H](C(N)=O)NC(=O)[C@H](Cc2ccccc2)NC1=O [BIM-23268] (H-CFF[dW]KTFC-NH2; disulfide 1-8) |  | suppression of prolactin secretion | more than 30% |  | 38% | up to 29% |
| CC(C)[C@@H]1NC(=O)[C@H](CCCCN)NC(=O)[C@@H](Cc2c[nH]c3ccccc23)NC(=O)[C@H](Cc2ccc(O)cc2)NC(=O)[C@@H](NC(=O)[C@H](N)Cc2ccc3ccccc3c2)CSSC[C@@H](C(=O)N[C@H](C(N)=O)[C@@H](C)O)NC1=O [Lanreotide] | did not affect prolactin release | failed to respond |  |  |  |  |
| C[C@@H](O)[C@@H]1NC(=O)[C@H](CCCCN)NC(=O)[C@@H](Cc2c[nH]c3ccccc23)NC(=O)[C@H](Cc2ccccc2)NC(=O)[C@@H](NC(=O)[C@H](N)Cc2ccccc2)CSSC[C@@H](C(=O)N[C@H](CO)[C@@H](C)O)NC1=O [Octreotide] |  | failed to respond |  |  |  |  |

— patent EP0979098B1, “METHOD OF TREATING HYPERPROLACTINEMIA AND PROLACTINOMAS” (Cedars-Sinai Medical Center, priority 1997, dated 1998)
